Earlier results in patent US20220370615A1, “Prevention of Illicit Manufacture of Methamphetamine from Pseudoephedrine Using Food Flavor Excipients” (Satara Pharmaceuticals, priority 2021, published 2022).

Conditions: species and route not given

## CC(=O)c1cnccn1 [Acetylpyrazine]
  LD50: > 4000 mg/kg
